Measured values taken from PubChem BioAssay AID588447 (Southern Research Specialized Biocontainment Screening …, 2011).
Where “and” joins values, the source holds several entries; their conditions need not be identical. Identical values can stand only once. Calls of active or inactive are those of the source. No rule for the calls is given here.

Columns and labels:
[1] = test system: Mycobacterium tuberculosis H37Rv growth, 7H9 media; test: Mycobacterium tuberculosis growth inhibition, dose response, 7H9 media, purified and synthesized compounds, set 8 (AID 588447); details: for IC50: measured here: IC50 growth inhibition replicates
[2] = as above; details: Mycobacterium tuberculosis H37Rv growth, 7H9 media

SMILES: O=C(c1ccc(CNc2c(N3CCCC3)c(=O)c2=O)cc1)N1CC=C(c2ccccc2)CC1
- IC90 [1]: 25.3 µM
- IC50 [1]: 7.68 µM and 4.36 µM

SMILES: CCOC(=O)CSc1ncnc2c1cnn2-c1ccc(C)cc1C
- IC90 [1]: 5.85 µM
- IC50 [1]: 4.29 µM

SMILES: CC1CC(C)CN(C(=O)c2ccc(CNc3c(N4CCCC4)c(=O)c3=O)cc2)C1 (centres undefined)
- IC50 [1]: 12.4 µM

SMILES: COC(=O)CSc1ncnc2c1cnn2-c1ccc(C)cc1C
- IC90 [1]: 5.94 µM
- IC50 [1]: 4.77 µM

SMILES: CCOC(=O)CSc1ncnc2c1cnn2-c1ccccc1
- IC50 [1]: 26.8 µM

SMILES: O=C(NCCc1ccc(Cl)cc1)C1CCC(CNc2c(N3CCCCC3)c(=O)c2=O)CC1 (centres undefined)
- IC50 [1]: 56.3 µM

SMILES: Cc1cccc(N2CCN(C(=O)c3ccc(CNc4c(N5CCC(C)CC5)c(=O)c4=O)cc3)CC2)c1C
- growth inhibition ([2]; at 75 µM (top of the series)): 15.6% (inactive)
- IC50 [1]: 24.6 µM

SMILES: CCOC(=O)N1CCC(Nc2c(Nc3cccc(CC)c3)c(=O)c2=O)CC1
- IC90 [1]: 87.5 µM
- IC50 [1]: 61.5 µM

SMILES: CC1CCN(C(=O)c2ccc(CNc3c(N4CCCC4)c(=O)c3=O)cc2)CC1
- IC50 [1]: 9.07 µM

SMILES: CC1CCCN(C(=O)c2ccc(CNc3c(N4CCCCC4)c(=O)c3=O)cc2)C1 (centres undefined)
- IC50 [1]: 7 µM

SMILES: CC1CC(C)CN(C(=O)C2CCC(CNc3c(N4CCCCC4)c(=O)c3=O)CC2)C1 (centres undefined)
- IC50 [1]: 19.9 µM and 26.3 µM

SMILES: O=C(C1CCC(CNc2c(N3CCCCC3)c(=O)c2=O)CC1)N1CCCCC1 (centres undefined)
- IC50 [1]: 30.8 µM

SMILES: CC(=O)c1ccc(NC(=O)c2ccc(CNc3c(N4CCOCC4)c(=O)c3=O)cc2)cc1
- IC50 [1]: 75.7 µM

SMILES: Cc1cccc(N2CCN(C(=O)c3ccc(CNc4c(N5CCC(C)CC5)c(=O)c4=O)cc3)CC2C)c1 (centres undefined)
- IC50 [1]: 63.7 µM

SMILES: CCC(C)NC(=O)CSc1nc2ccccc2c(=O)[nH]1 (centres undefined)
- IC90 [1]: 8.3 µM
- IC50 [1]: 5.98 µM

SMILES: CCOc1ccc(NC(=O)c2ccc(CNc3c(N4CCCC4)c(=O)c3=O)cc2)cc1
- growth inhibition ([2]; at 100 µM (top of the series)): -0.71% (inactive)

SMILES: CC(C)OC(=O)CSc1ncnc2c1cnn2-c1ccccc1
- IC50 [1]: 34.1 µM

SMILES: O=C(c1ccc(CNc2c(N3CCOCC3)c(=O)c2=O)cc1)N1CC=C(c2ccccc2)CC1
- IC90 [1]: 7.8 µM
- IC50 [1]: 2.54 µM

SMILES: O=C(c1ccc(CNc2c(N3CCCC3)c(=O)c2=O)cc1)N1CCc2ccccc2C1
- IC50 [1]: 7.01 µM

SMILES: O=C(NCCc1ccc(Cl)cc1)c1ccc(CNc2c(N3CCOCC3)c(=O)c2=O)cc1
- IC50 [1]: 8.33 µM and 7.05 µM

SMILES: COc1ccc(N2CCN(C(=O)c3ccc(CNc4c(N5CCOCC5)c(=O)c4=O)cc3)CC2)cc1
- IC50 [1]: 10.7 µM and 9.56 µM

SMILES: CC1CCCN(C(=O)C2CCC(CNc3c(N4CCCCC4)c(=O)c3=O)CC2)C1 (centres undefined)
- IC50 [1]: 39.8 µM
